One series deals with JAK3 (Homo sapiens (Human), UniProt P52333). Put plainly: Z'-LYTE enzymatic activity detection, JAK3. The format is biochemical. To be noted: test compound 30 nM; for inhibition at 0.03 µM: read-out: JAK3 % inhibitory rate @30 nM. An outline of the steps:
(§1)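 GST-tagged human recombinant kinases with Z′-LYTE peptides (Tyr6 for JAK1, Tyr4 for JAK2 and JAK3), ATP from kit, reacted 1 h at room temperature; development 1 h, ratio 445/520 nm at 400 nm excitation gives phosphorylation. Inhibition vs solvent control at 30 nM (JAK2, JAK3) or 300 nM (JAK1); tofacitinib as positive control.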

The target of another series is JAK1 (Homo sapiens (Human), UniProt P23458). Put plainly: Z'-LYTE enzymatic activity detection, JAK1. The format is biochemical. Conditions: test compound 300 nM; for inhibition at 0.3 µM: read-out: JAK1 % inhibitory rate @300 nM. An outline of the steps: as §1
The target of the next series is JAK2 (Homo sapiens (Human), UniProt O60674). Put plainly: Z'-LYTE enzymatic activity detection, JAK2. Conditions: test compound 30 nM; for inhibition at 0.03 µM: read-out: JAK2 % inhibitory rate @30 nM. The format is biochemical. An outline of the steps:
as §1

Another series deals with CTLL-2 cells. Kind of series: Cell growth activity assay (MTS), CTLL-2 cell model. To be noted: for activity at 0.3 µM: CTLL-2, 300 nM, read-out: CTLL-2 % growth rate @300 nM. The format is cell-based, mouse. An outline of the steps: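 Mouse IL-2-dependent T-cell line seeded ~20,000 cells/well, compounds added after 24 h at gradient concentrations (top 10 μM; CTLL-2 evaluation at 300 nM), cultured another 24 h. MTS/PMS added, 2 h at 37° C, absorbance 490 nm; inhibition vs DMSO control after negative-control background subtraction, GI50 calculated; triplicate.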

The next series relates to HeLa cells. Kind of series: Cell growth activity assay (MTS), HeLa cell model. It counts as cell-based, human. Also noted: activity: dose or concentration left out as unconfirmed. To be noted: 72 h; for activity: read-out: HeLa % growth rate. An outline of the steps: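 HeLa human cervical cancer cells were plated at about 5000 cells/well in a 96-well plate. After 24 h, test compounds were added in concentration gradients (highest final concentration 40 μM), alongside a DMSO solvent control and a negative control. After another 72 h, the medium was replaced with 100 μL fresh medium plus 20 μL MTS/PMS (20:1). Plates were incubated 2 h at 37° C. and absorbance was read at 490 nm to give growth inhibition and GI50.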

The test system of the next series is HUVEC cells. Kind of series: Cell growth activity assay (MTS), HUVEC cell model. The format is cell-based. Conditions: Homo sapiens, 72 h; for activity at 10 µM: read-out: HUVEC % growth rate @10 μM. An excerpt: MTS assay is a routine method for cell toxicity detection. The basic principle is based on the capacity of dehydrogenase in the mitochondria of living cells to reduce a novel yellow […] MTS to formazan, so that the amount of living cells is proportional to the amount of formazan product by detecting the absorbance at 490 nm (OD), thereby speculating the amount of living cells according to the OD value, and understanding the capacity of the test compound to inhibit the growth of cells or to kill the cells.
HeLa cell is a human cervical cancer cell line, and belongs to epithelial tumor cell line; HUVEC is a human umbilical vein endothelial cell, and belongs to primary endothelial cell; both types of cells express all subtypes except for JAK3.
The change of JAK kinase activity has no significant influence on other cell types except for the immune cells, and both cell models mentioned above are mainly used to evaluate whether there are any other kinase targets besides JAK kinases or there are nonselective cell toxicities.
In this experiment, a cultured cell model is incubated with the test compounds at different concentrations for a specific duration. The effect of the treatment by the test compound on the growth of cells is detected using MTS assay.
MTS is performed according to routine procedure in a 96-well plate.
The model cells are inoculated into each well of the 96-well plate at an appropriate concentration (about 5000 cells/well). After 24 h, the test compounds are added at different concentration gradients (the highest final concentration is 40 μM). A solvent control (DMSO) and a negative control are also performed at the same time. Each experiment is repeated for 3 times. The cells are detected after cultured for another 72 h.
After all culture medium is aspirated out of the well, 100 μL fresh medium and 20 μL pre-formulated mixture of MTS and PMS (in a ratio of 20:1) are added to each well. After incubation at 37° C. for 2 h, it is then detected by a microplate reader (490 nm).
The cell growth inhibitory rate and GI50 of the test compound are calculated as above.
Based on the above method, cytological evaluation is performed to the compounds described herein (for the detection of CTLL-2 cell, the concentration of the test compound is 300 nM; […]).

In series [1] the test system is collagen-induced arthritis (CIA) model of rats. Put plainly: Collagen-induced arthritis (CIA) model of rats. It counts as in vivo. To be noted: rat CIA. The method, then: Objective: in this test, arthritis is induced by chicken collagen in Wistar rats. After in vivo administration of the compounds of Example 7 and Example 22, the change of the disease index for arthritis in rats is evaluated to determine the therapeutic effect of the test compounds on rat arthritis.
Experimental animals: 36 female Wistar rats were purchased from the animal experiment center, Sun Yat-Sen University (Guangzhou) with the body weight ranging from 180 to 200 g at the beginning of experiment. Four groups (8 rats in each group) were used as the arthritis model, and another group (4 rats) was used as normal control.
Materials: chicken type II collagen and Freund's complete adjuvant were purchased from Beijing Biolead Science and Technology Development Co., Ltd. Positive control: methotrexat (MTX).
Preparation method: the test compounds were prepared by adding them to freshly prepared 0.2% CMC-Na+0.1% Tween-80 solution in sterile water to a desired concentration and thoroughly mixing through ultrasound.
CIA model: the chicken collagen was fully emulsified in equal volume of freud's complete adjuvant, and subcutaneously injected at the tail root of the rat on day 0 for sensitization (250 μL/rat). Another injection was performed at the tail root on day 7 for supplementary immunization (100 μL/rat). After arthritis occurred (on about day 13), the rats were randomly divided into 4 groups with 8 rats in each group. Administration started on day 14 after the first immunization, and lasted for 14 days. The limbs of a rat were visually inspected, and the severity of arthritis was scored in a range from […]: 0=normal; 1=a slight symptom, with signs, such as red and swollen ankle or wrist; 2=moderate red and swollen ankle or wrist; 3=severe red and swollen paw, including toes; 4=severe swollen joint accompanied with dysfunction; the highest score for each rat was 16. The thickness of toes of posterior limbs and the paw volume were measured at the same time.
Medication: the rats were i.g. administered with the compound of Example 7 at a concentration of 40 mg/kg twice/day; or the rats were i.g. administered with the compound of Example 22 at a concentration of 40 mg/kg twice/day. For the positive control, 5 mg/kg MTX was intraperitoneally injected twice a week. The i.g. administration of solvent was used as the negative control. The data obtained 14 days after administration and before administration were compared.

[2] abbreviates: 14 days after administration, Examples 40 mg/kg i.g. twice/day, MTX 5 mg/kg i.p. twice a week.

SMILES strings stand for the structures. Where a name gives a salt, the structure may show the parent alone.

9 molecules from patent US10011571B2, “Preparation method for aromatic heterocyclic compound used as selective JAK3 and/or JAK1 kinase inhibitor and application of aromatic heterocyclic compound” (SHENZHEN CHIPSCREEN BIOSCIENCES, LTD., priority 2014, dated 2018) can be followed below.

Broadly, the GI50 is the concentration giving 50% growth inhibition.

Chain of JAK2 (O60674 whole entry): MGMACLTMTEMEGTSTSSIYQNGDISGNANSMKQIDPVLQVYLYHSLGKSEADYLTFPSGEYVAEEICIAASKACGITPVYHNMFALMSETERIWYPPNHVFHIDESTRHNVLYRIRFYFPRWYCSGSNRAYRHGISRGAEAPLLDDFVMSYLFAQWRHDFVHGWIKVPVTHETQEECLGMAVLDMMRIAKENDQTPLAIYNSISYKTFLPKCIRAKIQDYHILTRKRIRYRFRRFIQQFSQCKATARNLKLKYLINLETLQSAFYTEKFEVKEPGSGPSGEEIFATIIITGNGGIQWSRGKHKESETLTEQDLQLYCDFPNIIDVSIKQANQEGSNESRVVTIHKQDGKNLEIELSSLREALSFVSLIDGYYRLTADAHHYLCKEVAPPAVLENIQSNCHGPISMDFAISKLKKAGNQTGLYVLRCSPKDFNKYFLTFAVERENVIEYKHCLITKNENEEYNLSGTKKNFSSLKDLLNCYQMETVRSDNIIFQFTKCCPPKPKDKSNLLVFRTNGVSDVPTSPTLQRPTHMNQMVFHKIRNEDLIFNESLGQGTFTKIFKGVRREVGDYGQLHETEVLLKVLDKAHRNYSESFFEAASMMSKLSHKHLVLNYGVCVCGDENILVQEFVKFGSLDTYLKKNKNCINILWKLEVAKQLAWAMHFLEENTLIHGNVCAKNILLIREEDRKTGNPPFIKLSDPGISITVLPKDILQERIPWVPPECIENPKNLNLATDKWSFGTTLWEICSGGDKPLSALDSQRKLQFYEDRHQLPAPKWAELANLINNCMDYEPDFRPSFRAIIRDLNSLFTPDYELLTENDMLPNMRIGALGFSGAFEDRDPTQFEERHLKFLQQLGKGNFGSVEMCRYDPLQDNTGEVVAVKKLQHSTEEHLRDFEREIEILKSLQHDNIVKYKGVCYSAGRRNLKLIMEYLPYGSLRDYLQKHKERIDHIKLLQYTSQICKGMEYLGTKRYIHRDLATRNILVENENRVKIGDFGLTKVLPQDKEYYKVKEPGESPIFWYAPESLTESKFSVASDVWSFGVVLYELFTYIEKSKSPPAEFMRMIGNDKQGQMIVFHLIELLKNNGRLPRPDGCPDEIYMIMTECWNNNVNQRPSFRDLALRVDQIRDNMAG
Chain of JAK3 (P52333 whole entry): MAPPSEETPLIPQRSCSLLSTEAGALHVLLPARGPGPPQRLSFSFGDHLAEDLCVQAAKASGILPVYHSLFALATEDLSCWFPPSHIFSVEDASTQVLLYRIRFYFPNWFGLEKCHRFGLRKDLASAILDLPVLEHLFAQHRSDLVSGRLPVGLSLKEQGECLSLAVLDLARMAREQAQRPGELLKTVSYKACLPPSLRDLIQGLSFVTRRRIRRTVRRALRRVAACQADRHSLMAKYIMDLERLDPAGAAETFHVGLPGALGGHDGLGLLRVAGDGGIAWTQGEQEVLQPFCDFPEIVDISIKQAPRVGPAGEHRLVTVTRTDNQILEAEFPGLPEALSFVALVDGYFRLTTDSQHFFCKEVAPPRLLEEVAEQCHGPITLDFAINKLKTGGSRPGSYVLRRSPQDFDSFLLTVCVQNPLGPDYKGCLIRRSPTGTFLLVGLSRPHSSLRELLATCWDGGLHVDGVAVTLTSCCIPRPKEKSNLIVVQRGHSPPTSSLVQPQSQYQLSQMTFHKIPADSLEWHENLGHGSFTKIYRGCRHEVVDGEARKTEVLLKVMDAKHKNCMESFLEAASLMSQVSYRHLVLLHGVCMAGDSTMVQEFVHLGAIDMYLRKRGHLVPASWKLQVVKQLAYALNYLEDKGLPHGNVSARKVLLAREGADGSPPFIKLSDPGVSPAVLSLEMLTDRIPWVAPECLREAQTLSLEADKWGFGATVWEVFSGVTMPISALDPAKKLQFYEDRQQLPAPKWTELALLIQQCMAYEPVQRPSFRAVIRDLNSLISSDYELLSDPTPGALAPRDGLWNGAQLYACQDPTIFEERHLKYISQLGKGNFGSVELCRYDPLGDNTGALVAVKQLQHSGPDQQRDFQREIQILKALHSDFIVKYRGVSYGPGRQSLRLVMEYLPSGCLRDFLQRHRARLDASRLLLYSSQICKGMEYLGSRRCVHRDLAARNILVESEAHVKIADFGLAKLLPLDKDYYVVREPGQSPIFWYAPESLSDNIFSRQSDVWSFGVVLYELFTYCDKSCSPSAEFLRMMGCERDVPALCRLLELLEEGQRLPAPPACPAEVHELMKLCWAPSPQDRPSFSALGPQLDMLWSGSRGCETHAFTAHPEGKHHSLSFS
Chain of JAK1 (P23458 whole entry): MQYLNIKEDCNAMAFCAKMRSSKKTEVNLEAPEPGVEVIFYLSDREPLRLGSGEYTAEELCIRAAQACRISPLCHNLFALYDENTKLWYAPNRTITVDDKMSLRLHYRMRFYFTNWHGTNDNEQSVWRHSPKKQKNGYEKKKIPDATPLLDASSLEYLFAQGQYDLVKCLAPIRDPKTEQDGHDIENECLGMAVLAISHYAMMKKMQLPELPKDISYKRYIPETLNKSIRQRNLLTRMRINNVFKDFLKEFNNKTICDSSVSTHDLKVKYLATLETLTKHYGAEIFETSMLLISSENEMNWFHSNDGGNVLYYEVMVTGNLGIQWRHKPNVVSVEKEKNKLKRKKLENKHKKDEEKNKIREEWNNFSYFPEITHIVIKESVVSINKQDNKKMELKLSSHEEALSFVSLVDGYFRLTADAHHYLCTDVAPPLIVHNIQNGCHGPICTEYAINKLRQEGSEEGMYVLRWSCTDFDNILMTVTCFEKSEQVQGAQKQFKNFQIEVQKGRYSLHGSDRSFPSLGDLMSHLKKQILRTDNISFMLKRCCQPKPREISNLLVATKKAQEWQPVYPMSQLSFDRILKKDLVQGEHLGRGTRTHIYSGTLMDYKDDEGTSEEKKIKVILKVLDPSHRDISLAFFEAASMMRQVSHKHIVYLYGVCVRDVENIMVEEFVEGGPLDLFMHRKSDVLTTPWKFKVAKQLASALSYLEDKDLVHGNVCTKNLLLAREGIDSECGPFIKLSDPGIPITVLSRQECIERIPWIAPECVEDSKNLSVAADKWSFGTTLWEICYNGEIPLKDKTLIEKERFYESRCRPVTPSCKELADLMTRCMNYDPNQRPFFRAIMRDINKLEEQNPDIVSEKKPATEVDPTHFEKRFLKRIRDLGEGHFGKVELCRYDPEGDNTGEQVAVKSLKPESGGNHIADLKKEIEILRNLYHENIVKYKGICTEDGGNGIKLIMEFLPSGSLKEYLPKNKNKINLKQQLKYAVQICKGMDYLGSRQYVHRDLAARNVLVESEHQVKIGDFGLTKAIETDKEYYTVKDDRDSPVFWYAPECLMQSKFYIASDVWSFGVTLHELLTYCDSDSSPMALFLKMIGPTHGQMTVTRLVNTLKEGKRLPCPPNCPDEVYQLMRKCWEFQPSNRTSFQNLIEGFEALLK

Turning to `C=CC(=O)Nc1cc(Nc2ncc(Cl)c(NCCCNC(=O)c3ccc(F)cc3)n2)ccc1F` [Example 17, N-(3-(2-(3-acrylamido-4-fluoro-phenylamino)-5-chloropyrimidinyl-4-amino)propyl)-4-fluorobenzamide], on JAK3, the “JAK3 RV (ratio between the inhibitory rate of the test compound and that of Xeljanz)” value came out at 0.97; the inhibition at 0.03 µM came to 84%. Further, on JAK1, the “JAK1 RV (ratio between the inhibitory rate of the test compound and that of Xeljanz)” value turned out to be 0.93; the inhibition at 0.3 µM was 79%. Moreover, on JAK2, the “JAK2 RV (ratio between the inhibitory rate of the test compound and that of Xeljanz)” value is 0.03; the inhibition at 0.03 µM amounted to 1%. In the series on CTLL-2 cells (Mus musculus, 24 h), the activity at 0.3 µM was 20%. The activity with HeLa cells (Homo sapiens, HeLa) was determined as 1%. For the same molecule, the activity at 10 µM in the series on HUVEC cells came out at 1%.
For the molecule `C=CC(=O)N(C)c1cc(Nc2ncc(C)c(NCCCNC(=O)c3ccc(F)cc3)n2)ccc1F` [Example 19, 4-fluoro-N-(3-(2-(4-fluoro-3-(N-methylacrylamido)phenylamino)-5-methylpyrimidinyl-4-amino)propyl)benzamide], the values for the inhibition at 0.03 µM at JAK3 and at JAK2 were 59% and 0%, respectively. Besides, the inhibition at 0.3 µM at JAK1 came out at 39%. In addition, the activity at 0.3 µM with CTLL-2 cells (Mus musculus, 24 h) came to 67%. In addition, the activity in the series on HeLa cells (Homo sapiens, HeLa) is 108%. For the same molecule, the activity at 10 µM with HUVEC cells was determined as 136%.
On to `C=CC(=O)N(C)c1cc(Nc2ncc(C)c(NCCCNC(=O)c3ccc(C(F)(F)F)cc3)n2)ccc1F` [Example 21, N-(3-(2-(4-fluoro-3-(N-methylacrylamido)phenylamino)-5-methylpyrimidinyl-4-amino)propyl)-4-trifluoromethylbenzamide], for which, on JAK3, the “JAK3 RV (ratio between the inhibitory rate of the test compound and that of Xeljanz)” value was 0.82; the inhibition at 0.03 µM came out at 71%. In addition, at JAK1, the “JAK1 RV (ratio between the inhibitory rate of the test compound and that of Xeljanz)” value was 0.69; the inhibition at 0.3 µM was determined as 59%. For the same molecule, at JAK2, the “JAK2 RV (ratio between the inhibitory rate of the test compound and that of Xeljanz)” value was 0.07; the inhibition at 0.03 µM came to 2%. Moreover, in the series with CTLL-2 cells (Mus musculus, 24 h), the activity at 0.3 µM worked out at 57%. In the series with HeLa cells (Homo sapiens, HeLa), the activity is 94%. Also, in the series with HUVEC cells, the activity at 10 µM stood at 102%.
For `C=CC(=O)N(C)c1cc(Nc2ncc(Cl)c(NCCCNC(=O)C3CCN(C)CC3)n2)ccc1F` [Example 27, N-(3-(5-chloro-2-(4-fluoro-3-(N-methylacrylamido)phenylamino)pyrimidinyl-4-amino)propyl)-1-methylpiperidinyl-4-formamide], on JAK3, the “JAK3 RV (ratio between the inhibitory rate of the test compound and that of Xeljanz)” value came out at 0.59; the inhibition at 0.03 µM is 35%. Further, at JAK1, the “JAK1 RV (ratio between the inhibitory rate of the test compound and that of Xeljanz)” value worked out at 0.45; the inhibition at 0.3 µM turned out to be 42%. In the series on CTLL-2 cells (Mus musculus, 24 h), the activity at 0.3 µM was found to be 85%. Moreover, the activity in the series with HeLa cells (Homo sapiens, HeLa) came to 30%. Besides, the activity at 10 µM in the series on HUVEC cells amounted to 6%.
Turning to `C=CC(=O)Nc1cc(Nc2ncc(Cl)c(NCCCNC(=O)c3ccc(C#N)cc3)n2)ccc1F` [Example 28, N-(3-(2-(3-acrylamido-4-fluorophenylamino)-5-chloropyrimidinyl-4-amino)propyl)-4-cyano-benzamide], at JAK3, the “JAK3 RV (ratio between the inhibitory rate of the test compound and that of Xeljanz)” value is given as 0.85; the inhibition at 0.03 µM was determined as 81%. At JAK1, the “JAK1 RV (ratio between the inhibitory rate of the test compound and that of Xeljanz)” value amounted to 0.40; the inhibition at 0.3 µM was determined as 34%. On JAK2, the “JAK2 RV (ratio between the inhibitory rate of the test compound and that of Xeljanz)” value turned out to be 0.03; the inhibition at 0.03 µM came out at 2%. For the same molecule, the activity at 0.3 µM in the series with CTLL-2 cells (Mus musculus, 24 h) turned out to be 77%. The activity in the series on HeLa cells (Homo sapiens, HeLa) stood at 81%. Moreover, in the series with HUVEC cells, the activity at 10 µM was 98%.
Take `C=CC(=O)N(C)c1cc(Nc2ncc(Cl)c(NCCCNC(=O)c3ccc(C(F)F)cc3)n2)ccc1F` [Example 115, N-(3-(5-chloro-2-(4-fluoro-3-(N-methylacrylamido)phenylamino)pyrimidinyl-4-amino)propyl)-4-difluoromethylbenzamide]: at JAK3, the “JAK3 RV (ratio between the inhibitory rate of the test compound and that of Xeljanz)” value turned out to be 0.98; the inhibition at 0.03 µM is 81%. Further, at JAK1, the “JAK1 RV (ratio between the inhibitory rate of the test compound and that of Xeljanz)” value was found to be 0.49; the inhibition at 0.3 µM turned out to be 42%. The inhibition at 0.03 µM on JAK2 worked out at 0%. Moreover, in the series with CTLL-2 cells (Mus musculus, 24 h), the activity at 0.3 µM stood at 3%. Further, the activity in the series with HeLa cells (Homo sapiens, HeLa) worked out at 71%.
As for `C=CC(=O)N(C)c1cc(Nc2ncc(Cl)c(NCCCCCCNC(=O)c3ccc(C#N)cc3)n2)ccc1F` [Example 123, N-(6-(5-chloro-2-(4-fluoro-3-(N-methylacrylamido)phenylamino)pyrimidinyl-4-amino)hexyl)-4-cyanobenzamide], on JAK3, the “JAK3 % inhibitory rate @30 nM” value is listed as 79%; the “JAK3 RV (ratio between the inhibitory rate of the test compound and that of Xeljanz)” value came out at 0.95. In addition, at JAK1, the “JAK1 % inhibitory rate @300 nM” value stood at 0%. Also, at JAK2, the “JAK2 % inhibitory rate @30 nM” value worked out at 0%. The “CTLL-2 % growth rate @300 nM” value in the series with CTLL-2 cells (300 nM, 24 h) amounted to 5%. Besides, in the series with HeLa cells, the “HeLa % growth rate @10 μM” value is 5%.
For `CN(Cc1cnc2nc(N)nc(N)c2n1)c1ccc(C(=O)N[C@@H](CCC(=O)O)C(=O)O)cc1` [MTX, methotrexate, reference compound], in series [1] (setting [2]), the “Inhibitory rate for arthritis score %” value was 73.1%, the “Inhibitory rate for paw volume %” value is listed as 43.1% and the “Inhibitory rate for toe thickness %” value came to 70.2%. In series [1] (14 days after administration, solvent = 100.0, Examples 40 mg/kg i.g. twice/day, MTX 5 mg/kg i.p. twice a week), the “Body weight growth rate %” value was 95.4%. Also, the “toxicity to the rats judged from body weight” value in series [1] (compared to the solvent group) was “certain toxicity”.
`C[C@@H]1CCN(C(=O)CC#N)C[C@@H]1N(C)c1ncnc2[nH]ccc12` [Xeljanz, tofacitinib citrate, reference compound]: the GI50 was 0.067 µM in the series with CTLL-2 cells (Mus musculus, CTLL-2, 24 h); more than 40 µM in the series on HeLa cells (Homo sapiens, HeLa); more than 40 µM with HUVEC cells.
